Source: ChEMBL document CHEMBL2163248, “Classification of inhibitors of hepatic organic anion transporting polypeptides (OATPs): influence of protein expression on drug-drug interactions” (J Med Chem, 2012)

Legend:
[1] = target: T1, OATP1B1 (Homo sapiens, UniProt Q9Y6L6); experiment: (§1) Inhibition of human liver OATP1B1 expressed in HEK293 Flp-In cells assessed as reduction in E17-betaG uptake at 20 uM by scintillation counting
T1 sequence (Q9Y6L6 whole entry): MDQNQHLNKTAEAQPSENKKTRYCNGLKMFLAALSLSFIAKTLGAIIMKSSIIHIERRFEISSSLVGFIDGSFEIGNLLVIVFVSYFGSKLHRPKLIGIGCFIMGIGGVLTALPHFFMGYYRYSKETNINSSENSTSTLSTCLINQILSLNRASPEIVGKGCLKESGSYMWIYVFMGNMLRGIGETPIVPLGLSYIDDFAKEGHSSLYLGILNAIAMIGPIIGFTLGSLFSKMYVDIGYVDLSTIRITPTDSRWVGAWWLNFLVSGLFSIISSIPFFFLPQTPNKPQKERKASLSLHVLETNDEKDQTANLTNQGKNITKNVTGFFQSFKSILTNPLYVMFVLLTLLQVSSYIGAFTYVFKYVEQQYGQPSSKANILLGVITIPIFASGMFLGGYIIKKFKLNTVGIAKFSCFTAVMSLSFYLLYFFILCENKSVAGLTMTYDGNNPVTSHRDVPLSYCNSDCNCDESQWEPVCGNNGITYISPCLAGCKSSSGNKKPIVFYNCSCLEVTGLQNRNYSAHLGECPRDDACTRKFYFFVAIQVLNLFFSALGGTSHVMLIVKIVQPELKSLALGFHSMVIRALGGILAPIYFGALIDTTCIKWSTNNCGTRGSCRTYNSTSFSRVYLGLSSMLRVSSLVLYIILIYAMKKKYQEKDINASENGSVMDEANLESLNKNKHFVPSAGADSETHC

[2] = target: T2, Solute carrier organic anion transporter family member 1B3 (Homo sapiens, UniProt Q9NPD5); experiment: Inhibition of human liver OATP1B3 expressed in HEK293 Flp-In cells assessed as reduction in [3H]E17-betaG uptake at 20 uM incubated for 5 mins by scintillation counting; settings: hek293, 5 min
T2 sequence (Q9NPD5 whole entry): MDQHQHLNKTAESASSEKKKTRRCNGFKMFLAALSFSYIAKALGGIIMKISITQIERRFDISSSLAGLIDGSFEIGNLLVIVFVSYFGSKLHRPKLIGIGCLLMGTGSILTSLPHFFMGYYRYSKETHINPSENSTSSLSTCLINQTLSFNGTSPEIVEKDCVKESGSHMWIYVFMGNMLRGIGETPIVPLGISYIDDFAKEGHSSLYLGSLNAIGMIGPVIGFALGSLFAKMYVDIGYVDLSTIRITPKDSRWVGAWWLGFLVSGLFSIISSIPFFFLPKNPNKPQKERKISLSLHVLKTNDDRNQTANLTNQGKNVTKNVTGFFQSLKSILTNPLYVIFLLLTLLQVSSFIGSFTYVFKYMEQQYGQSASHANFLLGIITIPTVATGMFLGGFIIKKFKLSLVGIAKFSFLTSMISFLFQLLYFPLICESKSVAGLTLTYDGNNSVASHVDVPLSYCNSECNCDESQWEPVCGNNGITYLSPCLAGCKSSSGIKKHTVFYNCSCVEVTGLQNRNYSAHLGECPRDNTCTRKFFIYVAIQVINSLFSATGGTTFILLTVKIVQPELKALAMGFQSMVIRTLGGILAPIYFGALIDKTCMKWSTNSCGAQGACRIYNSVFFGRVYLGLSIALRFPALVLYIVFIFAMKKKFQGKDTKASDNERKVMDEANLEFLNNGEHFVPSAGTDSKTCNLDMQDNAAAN

[3] = target: T3, Solute carrier organic anion transporter family member 2B1 (Homo sapiens, UniProt O94956); experiment: Inhibition of human liver OATP2B1 expressed in HEK293 Flp-In cells assessed as reduction in [3H]E3S uptake at 20 uM incubated for 5 mins by scintillation counting; settings: hek293, 5 min
T3 sequence (O94956 whole entry): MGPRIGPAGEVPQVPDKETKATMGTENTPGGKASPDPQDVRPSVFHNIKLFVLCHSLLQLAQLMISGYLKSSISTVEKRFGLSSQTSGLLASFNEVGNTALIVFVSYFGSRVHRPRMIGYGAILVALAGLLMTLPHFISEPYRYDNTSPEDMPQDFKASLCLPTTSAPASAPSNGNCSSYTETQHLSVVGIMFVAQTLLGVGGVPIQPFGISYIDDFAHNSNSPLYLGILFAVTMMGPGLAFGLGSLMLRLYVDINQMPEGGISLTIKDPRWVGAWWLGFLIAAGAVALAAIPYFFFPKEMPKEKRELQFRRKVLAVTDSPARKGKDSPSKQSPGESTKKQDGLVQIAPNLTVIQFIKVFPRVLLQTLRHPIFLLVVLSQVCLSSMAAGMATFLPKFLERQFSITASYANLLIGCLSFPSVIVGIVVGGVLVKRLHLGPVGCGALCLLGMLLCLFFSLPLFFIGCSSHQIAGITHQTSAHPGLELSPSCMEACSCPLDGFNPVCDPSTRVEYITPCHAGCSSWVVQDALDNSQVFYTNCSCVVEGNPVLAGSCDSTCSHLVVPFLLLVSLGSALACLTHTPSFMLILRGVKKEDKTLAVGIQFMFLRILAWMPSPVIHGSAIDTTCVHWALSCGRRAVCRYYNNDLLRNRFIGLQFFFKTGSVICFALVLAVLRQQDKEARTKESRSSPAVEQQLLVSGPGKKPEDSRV

[4] = target: T4, Solute carrier organic anion transporter family member 1B1 (Homo sapiens, UniProt Q9Y6L6); experiment: as §1; settings: hek293, 20 µM
T4 sequence (Q9Y6L6 whole entry): T1 sequence (Q9Y6L6 whole entry)

[5] = target: T4, Solute carrier organic anion transporter family member 1B1; experiment: Inhibition of human liver OATP1B1 expressed in HEK293 Flp-In cells assessed as reduction in E17-betaG uptake by scintillation counting; format: ADME, cell-based
[6] = target: T3, Solute carrier organic anion transporter family member 2B1; experiment: Inhibition of human liver OATP2B1 expressed in HEK293 Flp-In cells assessed as reduction in [3H]E3S uptake incubated for 5 mins by scintillation counting; format: ADME, cell-based
[7] = Fraction unbound in plasma; format: ADME, cell-free
[8] = target: T5, OATP1B3 (Homo sapiens, UniProt Q9NPD5); experiment: Activity at human liver OATP1B3 expressed in HEK293 Flp-In cells; format: ADME, cell-based; settings: HEK293 Flp-In cells expressing OATP1B3
T5 sequence (Q9NPD5 whole entry): T2 sequence (Q9NPD5 whole entry)

[9] = target: T2, Solute carrier organic anion transporter family member 1B3; experiment: Activity at human liver OATP1B3 expressed in HEK293 Flp-In cells assessed as rate of compound transport per mg of protein; format: ADME, cell-based
[10] = target: T2, Solute carrier organic anion transporter family member 1B3; experiment: Ratio of Vmax to Km for human liver OATP1B3 expressed in HEK293 Flp-In cells assessed per mg protein; format: ADME, cell-based
[11] = tested on: OATP1B1 versus OATP1B3; experiment: Selectivity index, ratio of IC50 for human liver OATP1B1 to IC50 for OATP1B3; settings: read-out: Ratio IC50
[12] = target: T2, Solute carrier organic anion transporter family member 1B3; experiment: Inhibition of human liver OATP1B3 expressed in HEK293 Flp-In cells assessed as reduction in [3H]E17-betaG uptake incubated for 5 mins by scintillation counting; format: ADME, cell-based
[13] = HEK293 Flp-In cells expressing OATP1B1, probe E17-betaG

| SMILES | inhibition at 20 µM [1, 13] [%] | INH [2] [%] | INH [3] [%] | other results |
| --- | --- | --- | --- | --- |
| CSCC[C@H](NC(=O)[C@H](Cc1ccc(OS(=O)(=O)O)cc1)NC(=O)[C@@H](N)CC(=O)O)C(=O)NCC(=O)N[C@@H](Cc1c[nH]c2ccccc12)C(=O)N[C@@H](CCSC)C(=O)N[C@@H](CC(=O)O)C(=O)N[C@@H](Cc1ccccc1)C(N)=O [SINCALIDE] | 89.3 | 96.9 | 60.1 | – |
| C[C@H](CCC(=O)NCC(=O)O)[C@H]1CC[C@H]2[C@@H]3[C@H](O)C[C@@H]4C[C@H](O)CC[C@]4(C)[C@H]3C[C@H](O)[C@]12C [GLYCOCHOLIC ACID] | 66.4 | 29 | -9.8 | – |
| CC[C@H](C)C(=O)O[C@H]1C[C@H](O)C=C2C=C[C@H](C)[C@H](CC[C@@H](O)C[C@@H](O)CC(=O)O)[C@H]21 [PRAVASTATIN] | – | 5.4 | 36.8 | INH [4]: 52.2%; IC50 [5]: 3.6 µM |
| C[n+]1cc2c3c(ccc2c2ccc4cc5c(cc4c21)OCO5)OCO3 | -0.2 | 2.9 | 15 | – |
| CCOc1ccc(-c2nc3cc(-c4nc5cc(N6CCN(C)CC6)ccc5[nH]4)ccc3[nH]2)cc1 | – | – | 12.7 | inhibition at 20 µM ([1]; hek293): 48.1%; IC50 [5]: 19 µM |
| CC[C@H]1OC(=O)[C@H](C)[C@@H](O[C@H]2C[C@@](C)(OC)[C@@H](O)[C@H](C)O2)[C@H](C)[C@@H](O[C@@H]2O[C@H](C)C[C@H](N(C)C)[C@H]2O)[C@](C)(OC)C[C@@H](C)C(=O)[C@H](C)[C@@H](O)[C@]1(C)O [CLARITHROMYCIN] | 73.1 | 53.8 | 5.1 | – |
| C[n+]1ccccc1 | 27.9 | -2.3 | 12.8 | – |
| C#Cc1cccc(Nc2ncnc3cc(OCCOC)c(OCCOC)cc23)c1 [ERLOTINIB] | – | 27.5 | 93.7 | INH [4]: 10.6%; IC50 [6]: 0.55 µM; Cp(f) [7]: 400 nM |
| CC1COc2c(N3CCN(C)CC3)c(F)cc3c(=O)c(C(=O)O)cn1c23 (stereo not given) [OFLOXACIN] | -8.2 | 24.5 | 18.4 | – |
| C[C@]12CC[C@@H]3c4ccc(O)cc4CC[C@H]3[C@@H]1CC[C@@H]2O[C@@H]1O[C@H](C(=O)O)[C@@H](O)[C@H](O)[C@H]1O [ESTRADIOL 17B GLUCURONIDE] | 67.9 | 69 | -12.2 | Km [8]: 11.7 µM; Vmax [9]: 10.12 pmol/min; Vmax/Km [10]: 0.86 µL/min |
| COc1ccc2c(c[n+](C)c3c4cc5c(cc4ccc23)OCO5)c1OC [CHELERYTHRINE] | -0.7 | 24.9 | 13.1 | – |
| C[C@H](CCC(=O)NCCS(=O)(=O)O)[C@H]1CC[C@H]2[C@@H]3CC[C@@H]4C[C@H](O)CC[C@]4(C)[C@H]3C[C@H](O)[C@]12C [TAURODEOXYCHOLIC ACID] | 81.7 | 61.4 | 85.3 | – |
| Cc1ccc(-c2cc(C(F)(F)F)nn2-c2ccc(S(N)(=O)=O)cc2)cc1 [CELECOXIB] | – | 22.3 | -69 | inhibition at 20 µM ([1]; hek293): -3.3% |
| Cc1nccn1CC1CCc2c(c3ccccc3n2C)C1=O (stereo not given) [ONDANSETRON] | 4.8 | -3.6 | -8.7 | – |
| N[C@@H](Cc1cc(I)c(Oc2cc(I)c(O)c(I)c2)c(I)c1)C(=O)O [LEVOTHYROXINE] | -13.1 | 11.4 | 63.7 | – |
| N[C@@H]1C[C@H]1c1ccccc1.N[C@H]1C[C@@H]1c1ccccc1 (relative stereo) [TRANYLCYPROMINE] | – | -9.3 | 15.5 | inhibition at 20 µM ([1]; hek293): -9.5% |
| CCN(CC)CCCC(C)Nc1ccnc2cc(Cl)ccc12 (stereo not given) [CHLOROQUINE] | -1.4 | -7.2 | 23.5 | – |
| CC(=O)Oc1ccc2c(c1)Oc1cc(OC(C)=O)ccc1C21OC(=O)c2cc(C(=O)O)ccc21 | 70.7 | 71.1 | -24.9 | – |
| C[n+]1ccc(-c2ccccc2)cc1 | 14.2 | 10.8 | 2.4 | – |
| S=C=NCCc1ccccc1 [PHENETHYLISOTHIOCYANATE] | -16.4 | 12.3 | -32 | – |
| CC[C@]1(O)C[C@H]2CN(CCc3c([nH]c4ccccc34)[C@@](C(=O)OC)(c3cc4c(cc3OC)N(C=O)[C@H]3[C@@](O)(C(=O)OC)[C@H](OC(C)=O)[C@]5(CC)C=CCN6CC[C@]43[C@@H]65)C2)C1 [VINCRISTINE] | – | 59.8 | 13 | selectivity ratio [11]: 4; INH [4]: 3.9%; IC50 [5]: 44 µM; IC50 [12]: 11 µM |
| CCCc1nc(C(C)(C)O)c(C(=O)OCc2oc(=O)oc2C)n1Cc1ccc(-c2ccccc2-c2nnn[nH]2)cc1 [OLMESARTAN MEDOXOMIL] | 60.4 | – | -7.9 | – |
| COc1cccc2c1C(=O)c1c(O)c3c(c(O)c1C2=O)C[C@@](O)(C(=O)CO)C[C@@H]3O[C@H]1C[C@H](N)[C@H](O)[C@H](C)O1 [DOXORUBICIN] | -5.8 | 26.6 | 49.9 | – |
| CN1CCC[C@@H]1Cc1c[nH]c2ccc(CCS(=O)(=O)c3ccccc3)cc12 | – | 2.8 | 0.4 | INH [4]: 31.7% |
